Results published in patent US4383993A, “Nasal dosage forms containing natural female sex hormones” (priority 1981, dated 1983).
“Also recorded” adds a separate entry of the source.

Assays:
[1] = bioavailability of 17 β-estradiol in rats via intravenous, nasal and intraduodenal/oral routes (TUE, E2, E1 in blood); assay type: in vivo, Sprague-Dawley male rats
Procedure: (§1) Sprague-Dawley male rats, each weighing about 270 grams, were used in the progesterone study. For nasal administration, the rats were anesthetized using sodium pentobarbital (50 mg/kg) and the drug was administered to the nasal cavity by means of a micropipet at dosage levels of 50 μg, 100 μg and 150 μg/rat of [4-^14 C]-progesterone (~8.5 μCi/rat) in 0.1 ml of isotonic saline containing 1-2% Tween 80 as a solubilizing agent, according to the procedure described by Hirai et al, the 98th Annual Meeting of Pharmaceutical Society of Japan, Okayama, April 1978, except that the end of the tube leading from the esophagus to the nasal cavity was closed and the drug was administered to the nostrils which were then closed with an adhesive agent. For oral (intraduodenal) administration, the rats were anesthetized and the abdomen of each rat was opened through a midline incision and a 50 μg/rat dose of the drug ([4-^14 C]-progesterone in 0.1 ml isotonic saline with 1-2% Tween 80) was injected directly through the duodenum. For intravenous administration, the rats were anesthetized and the drug was injected through the femoral vein at dosage levels of 50 μg, 100 μg and 150 μg/rat of [4-^14 C]-progesterone in 0.1 ml of isotonic saline containing 1-2% Tween 80. Blood was sampled periodically from the […] after IV and nasal administration, and from the tail vein after ID administration. Blood levels of progesterone were determined by thin layer chromotography.
Sprague-Dawley male rats, each weighing approximately 270 grams, were given dosages of 5 μg, 10 μg and 20 μg/rat of [6,7-^3 H] […] Blood samples were taken periodically as described in the progesterone study and assayed for estradiol (E2), estrone (E1) and total unconjugated estrogens (TUE).

[2] = bioavailability of progesterone in rats after intravenous, nasal and intraduodenal/oral administration; assay type: in vivo, Sprague-Dawley male rats
Procedure: as §1

[3] = by mouth; rapid metabolism in intestinal epithelium and liver; cited from earlier work

## C[C@]12CC[C@@H]3c4ccc(O)cc4CC[C@H]3[C@@H]1CC[C@@H]2O [17 β-estradiol, estra-1,3,5(10)-triene-3,17 β-diol]
[1]; nasal
  absorption by the nasal mucosa: rapidly absorbed by the nasal mucosa; also recorded: rapidly absorbed from the nasal mucosa into systemic blood without extensive intestinal or first pass metabolism
[1]; rat, in vivo
  nasal vs oral bioavailability of E2: 13.23-21.74 times
  nasal vs oral bioavailability of TUE: 2.26-2.83 times
[1]; rat, in vivo, E2 bioavailability relative to corresponding IV doses
  bioavailability: 50.5 to 83.9%
[1]; rat, in vivo, po, E2 AUC ratio vs. IV
  bioavailability: 3.8%
[1]; rat, in vivo, po, E2 bioavailability relative to corresponding IV doses
  bioavailability: 3.1 to 5%

## CC(=O)[C@H]1CC[C@H]2[C@@H]3CCC4=CC(=O)CC[C@]4(C)[C@H]3CC[C@]12C [progesterone, pregn-4-ene-3,20-dione]
[2]; 50 μg dosage level
  nasal bioavailability vs oral bioavailability: 85.75 times
[2]; IV and nasal routes, 50, 100, 150 μg, FIG. 2
  area under the curve as a function of dose: directly proportional to the dose administered
[2]; at each dose
  area under the curve, intravenous vs nasal (two tailed t-test): not significantly different, even at the 0.001 level
[2]; nasal
  absorption from the nasal mucosa: very rapidly absorbed from the nasal mucosa; also recorded: rapidly absorbed from the nasal mucosa into the systemic circulation without first pass metabolism; also recorded: rapidly absorbed from the nasal mucosa into systemic blood without extensive intestinal or first pass metabolism
[2]; nasal vs intravenous
  nasal bioavailability vs intravenous bioavailability: equivalent
[2]; nasal vs oral
  nasal bioavailability vs oral bioavailability (in words): vastly superior
[2]; rat, in vivo
  Tmax: < 7 min
[2]; rat, in vivo, iv, AUC ratio Nasal/IV
  bioavailability: 103%
[2]; rat, in vivo, oral bioavailability relative to equivalent IV dose
  bioavailability: 1.2%
[3]
  oral effectiveness: not effective by mouth
